Legend:
BxPC-3 cells [1] = test: SRB antiproliferative assay, BxPC-3; type: cell-based, human
Description: (§1) The cytotoxic activity of the nortopsentin derivatives 3b, 3e, 4c, 5b, and 6c on pancreatic cancer cells (BxPC-3, Panc-1, Suit-2, Capan-1, PaTu-T, primary PDAC-3 and resistant Panc-1-GR cells) was determined by the sulforhodamine B (SRB) chemosensitivity assay, as described previously. Cells were plated in 96-well flat-bottom plates at final concentrations ranging from 3000–5000 cells/well in 100 µL of medium. After a 24 h pre-incubation period, cells were treated with the compounds at nine screening concentrations (from 0.1 μM to 40 μM) in triplicate and incubated at 37 °C for 72 h. After the treatment, cells were fixed with 25 µL of cold 50% trichloroacetic acid (TCA) for each well and incubated at 4 °C for 1 h. Afterwards, plates were washed five times with demi-water and air-dried overnight. Then, the plates were stained with 50 µL of 0.4% SRB solution in 1% acetic acid for 15 min. The excess stain was rinsed off by placing the plates under running 1% acetic acid and allowed to dry at room temperature overnight. SRB staining was rinsed with 150 µL tris(hydroxymethyl)aminomethane solution pH = 8.8 (TRIS-base), and the optical density (OD) was read at 492 nm. Each assay was performed in triplicate and assays were repeated at least three times. The comparison of the average optical density of the growth in control wells with that in the sample wells allowed the estimation of the percentage of cell growth, using the following equation: % Cell Growth = (mean ODcompound − mean ODday zero plate)/(mean ODcells − mean ODday zero plate) × 100
(§2) The results obtained were adjusted by the day zero plate (wells containing cells growing for only 24 h) and normalized by the control cells (wells with untreated cells) to obtain the rate of viable cells.

Suit-2 cells = test: SRB antiproliferative assay, Suit-2; type: cell-based, human
Description: as §1, §2

CDK1 [2] = test: CDK1 ELISA in Suit-2; type: cell-based, human; conditions: Suit-2, 10 µM, 24 h, vs DMSO control, p < 0.01
Description: (§3) The expression of CDK1 was detected and quantified using an Enzyme-Linked Immunosorbent Assay (ELISA, Human cyclin-dependent kinase 1 (CDK1) ELISA Kit, Catalog Number: MBS707090) according to the manufacturer’s protocol and our previous studies. Volumes of 100 µL of the standard and the sample were added for each well, and the plates were incubated for 2 h at 37 °C. Then, the liquid was removed, and 100 µL of biotin-antibody was added to each well; the plates were then incubated for 1 h at 37 °C. The medium was removed, and the plates were washed with wash buffer (200 µL). Subsequently, 100 µL of HRP-avidin was added to each well, and the plates were incubated for 1 h at 37 °C. The washing process was repeated five times. At the end, 90 µL of TMB substrate was added to each well, and the plates were incubated for 30 min at 37 °C in the dark. Finally, 50 µL of stop solution was added to each well. The optical density of each well was determined using a microplate reader set to 450 nm.

PDAC-3 cells = test: Cell-cycle analysis by PI flow cytometry, PDAC-3; type: cell-based, human
Description: Cell cycle perturbation was analyzed by flow cytometry. Optimized numbers of cells (5 × 10^5 cells/mL) were seeded in 6-well plates. […] After treatment, the cells were harvested by trypsinization (250 µL trypsin-EDTA/well), incubated until the cells detached, re-suspended using the same medium used for culture, collected in specific FACS (Fluorescence Activated Cell Sorting) tubes, and washed with 1.5 mL phosphate-buffered saline (PBS). The samples were then centrifuged to form a pellet (5 min at 1500 rpm). These pellets were fixed in 1 mL of ice-cold 70% ethanol, added drop by drop during vortex, and placed in the refrigerator at 4 °C. After overnight incubation, the cells were washed twice with PBS, centrifuged (5 min at 1500 rpm), re-suspended in […] of RNase ([…]) and incubated for 30 min at 37 °C. Finally, […] of propidium iodide solution (PI, […]) was added, and the cell distribution in the various phases of the cell cycle was analyzed in a FACS Calibur instrument. Data analysis was carried out with FACSdiva software (Becton Dickinson), while cell cycle distribution was determined using Modfit software (Verity-Software, Topsham, ME, USA).

Panc-1 cells = test: SRB antiproliferative assay, Panc-1; type: cell-based, human
Description: as §1, §2

[3] = tested on: normal human skin fibroblasts Hs27; test: SRB cytotoxicity on normal fibroblasts; type: cell-based
Description: The compound was tested at eight different concentrations ranging from 0.31 μM to 40 μM using the SRB assay. […] At the highest concentration tested (40 μM), only 18% growth inhibition was observed after 72 h of exposure. […] These findings provide evidence of the potential safety of compound 3b for further development as a therapeutic agent.
as §1

CDK1 [4] = test: CDK1 ELISA in PDAC-3; type: cell-based, human; conditions: PDAC-3, 10 µM, 24 h, vs DMSO control, p < 0.01
Description: as §3

BxPC-3 cells [5] = test: Scratch wound-healing assay, BxPC-3; type: cell-based, human; conditions: BxPC-3, 8 h, 4 × IC50, untreated = 100% wound closure
Description: Cell migration was assessed using a wound-healing assay, as described previously. A total of 5 × 10^4 cells/well were seeded in a 96-well plate, to form a confluent monolayer. Scratches were created in confluent cell layers using the sterile scratch tool. The detached cells following scratch induction were removed and new medium was added to the wells. Cells were next treated with compounds 3b and 5b at a concentration of 4 × IC50. Cells growing in a complete medium were maintained at 37 °C with a supply of 5% CO2/95% air atmosphere and 100% relative humidity. The progress of wound closure was observed and documented at various time points (0th, 4th, 8th, 20th, and 24th h) using phase-contrast microscopy. Pictures of the plates were taken using the Universal Grab 6.3 software (DCILabs) from a computer connected to a Leica microscope with a JAI TMC-1327 camera.
The percentage of migration was calculated using the following equation:%Migration = (Width of the wound at T = 0 − Width of the wound at T = X)/(Width of the wound at T = 0) × 100

Panc-1-GR cells = test: SRB antiproliferative assay, gemcitabine-resistant Panc-1-GR; type: cell-based, human
Description: as §1, §2

PaTu-T cells = test: SRB antiproliferative assay, PaTu-T; type: cell-based, human
Description: as §1, §2

[6] = Homo sapiens, 72 h, mean ± SEM, read-out: Half-maximal inhibitory concentration (IC50)

IC50 (BxPC-3 cells [1]; Homo sapiens, BxPC-3, 72 h, mean ± SEM, read-out: Half-maximal inhibitory concentration (IC50)): 2.1 ± 0.006 µM
IC50 (Panc-1 cells; Homo sapiens, Panc-1, 72 h, mean ± SEM, read-out: Half-maximal inhibitory concentration (IC50)): 2.5 ± 0.55 µM
IC50 (Panc-1-GR cells; [6]): 8 ± 2.8 µM
Compound: Cn1cc(-c2nnc(-c3cn(C)c4ncccc34)o2)c2ccccc21 [3b, 1-methyl-3-[5-(1-methyl-1H-indol-3-yl)-1,3,4-oxadiazol-2-yl]-7-azaindole]
Cell growth percentage (BxPC-3 cells [1]; BxPC-3, 10 μM, 72 h exposure): 11.10%
IC50 (Suit-2 cells; Homo sapiens, Suit-2, 72 h, mean ± SEM, read-out: Half-maximal inhibitory concentration (IC50)): 1.4 ± 0.74 µM
Cell growth percentage (Suit-2 cells; Suit-2, 10 μM, 72 h exposure): 18.34%
CDK1 expression by ELISA (CDK1 [2]): reduction in CDK1 expression
percentage of cells in G2-M phase (PDAC-3 cells; PDAC-3, 2 μM, 24 h (control 16%)): 23%
percentage of cells in S phase (PDAC-3 cells; PDAC-3, 2 μM, 24 h (control 25%)): 23%
percentage of cells in G0-G1 phase (PDAC-3 cells; PDAC-3, 2 μM, 24 h (control 59%)): 54%
percentage of cells in G2-M phase (PDAC-3 cells; PDAC-3, 4-fold IC50, 24 h (control 16%)): 52%
percentage of cells in S phase (PDAC-3 cells; PDAC-3, 4-fold IC50, 24 h (control 25%)): 19%
percentage of cells in G0-G1 phase (PDAC-3 cells; PDAC-3, 4-fold IC50, 24 h (control 59%)): 29%
Cell growth percentage (Panc-1 cells; Panc-1, 10 μM, 72 h exposure): 9.12%
growth inhibition ([3]; Hs27, 40 μM (highest concentration), 72 h): 18%
cytotoxicity towards normal fibroblast cells ([3]; Hs27, 0.31-40 μM): relatively non-toxic
cell growth rate ([3]; Hs27, concentrations below 10 μM, 72 h): ~100%
CDK1 expression by ELISA (CDK1 [4]): reduction in CDK1 expression
percentage of cells migrating (BxPC-3 cells [5]): 39%
Cell growth percentage (Panc-1-GR cells; 10 μM, 72 h exposure): 22.47%
Cell growth percentage (PaTu-T cells; 10 μM, 72 h exposure): 17.13%
IC50 (PaTu-T cells; [6]): 3.2 ± 0.42 µM
